In US9376425B2, “Heterocyclic compounds as MDM2 inhibitors for the treatment of cancer” (AMGEN INC., priority 2011, dated 2016):

molecular target: T1, human MDM2 (GST-hMDM2 aa 1-188), interaction with biotinylated-p53 (aa 1-83) (Homo sapiens, UniProt Q00987); assay: Homogenous Time-Resolved Fluorescence Assay (HTRF1 assay), inhibition of HDM2-p53 interaction; assay type: binding; settings: 2.5 nM GST-hMDM2, 5 nM biotinylated-p53, 200 mM KF
T1 construct: Amino acid residues 1-188 of human MDM2 were expressed; made in house; host or cells: Escherichia coli
T1 sequence (Q00987 1-188): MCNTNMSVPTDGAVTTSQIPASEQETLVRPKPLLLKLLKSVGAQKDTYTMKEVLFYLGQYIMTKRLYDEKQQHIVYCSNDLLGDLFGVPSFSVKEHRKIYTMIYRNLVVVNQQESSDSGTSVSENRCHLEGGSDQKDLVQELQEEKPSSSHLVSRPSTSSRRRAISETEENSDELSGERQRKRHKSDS
Procedure, shortened: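 GST-hMDM2 preincubated 20 min at room temperature with serially diluted compound, then biotinylated p53 (aa 1-83, AviTag-TrxA-6xHis fusion) added for 60 min. SA-XLent/anti-GST cryptate detection equilibrated >4 h; final DMSO 2%. Time-resolved fluorescence read; percent inhibition relative to nutlin-3.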

Structure (SMILES) | IC50
O=C(O)C[C@@H]1O[C@H](c2cccc(Cl)c2)[C@@H](c2ccc(Cl)cc2)NC1=O [Example 34, 2-((2S,5R,6R)-6-(3-Chlorophenyl)-5-(4-chlorophenyl)-3-oxomorpholin-2-yl)acetic acid] | 25000 nM
O=C(O)C[C@H]1O[C@H](c2cccc(Cl)c2)[C@@H](c2ccc(Cl)cc2)NC1=O [Example 35, 2-((2R,5R,6R)-6-(3-Chlorophenyl)-5-(4-chlorophenyl)-3-oxomorpholin-2-yl)acetic acid] | 13000 nM
O=C(O)C[C@@H]1O[C@H](c2cccc(Cl)c2)[C@@H](c2ccc(Cl)cc2)N(Cc2ncco2)C1=O [Example 43, 2-((2S,5R,6R)-6-(3-Chlorophenyl)-5-(4-chlorophenyl)-4-(oxazol-2-ylmethyl)-3-oxomorpholin-2-yl)acetic acid] | 1100 nM
CCN1C(=O)[C@@H](CC(=O)O)O[C@H](c2cccc(Cl)c2)[C@H]1c1ccc(Cl)cc1 [Example 44, 2-((2R,5R,6R)-6-(3-Chlorophenyl)-5-(4-chlorophenyl)-4-ethyl-3-oxomorpholin-2-yl)acetic acid] | 900 nM
CCN1C(=O)[C@H](CC(=O)O)O[C@H](c2cccc(Cl)c2)[C@H]1c1ccc(Cl)cc1 [Example 45, 2-((2S,5R,6R)-6-(3-Chlorophenyl)-5-(4-chlorophenyl)-4-ethyl-3-oxomorpholin-2-yl)acetic acid] | 800 nM
C=CCN1C(=O)[C@@H](CC(=O)O)O[C@H](c2cccc(Cl)c2)[C@H]1c1ccc(Cl)cc1 [Example 46, 2-((2R,5R,6R)-4-Allyl-6-(3-chlorophenyl)-5-(4-chlorophenyl)-3-oxomorpholin-2-yl)acetic acid] | 800 nM
C=CCN1C(=O)[C@H](CC(=O)O)O[C@H](c2cccc(Cl)c2)[C@H]1c1ccc(Cl)cc1 [Example 47, 2-((2S,5R,6R)-4-Allyl-6-(3-chlorophenyl)-5-(4-chlorophenyl)-3-oxomorpholin-2-yl)acetic acid] | 800 nM
O=C(O)C[C@@H]1O[C@H](c2cccc(Cl)c2)[C@@H](c2ccccc2)N(CC2CC2)C1=O [Example 55, 2-((2S,5R,6R)-6-(3-Chlorophenyl)-4-(cyclopropylmethyl)-3-oxo-5-phenylmorpholin-2-yl)acetic acid] | 3300 nM
O=C(O)C[C@@H]1O[C@H](c2cccc(Cl)c2)[C@@H](c2ccc(F)cc2)N(CC2CC2)C1=O [Example 56, 2-((2S,5R,6R)-6-(3-Chlorophenyl)-4-(cyclopropylmethyl)-5-(4-fluorophenyl)-3-oxomorpholin-2-yl)acetic acid] | 700 nM
O=C(O)C[C@@H]1O[C@H](c2cccc(Cl)c2)[C@@H](c2ccc(C(F)(F)F)cc2)N(CC2CC2)C1=O [Example 57, 2-((2S,5R,6R)-6-(3-Chlorophenyl)-4-(cyclopropylmethyl)-3-oxo-5-(4-(trifluoromethyl)phenyl)morpholin-2-yl)acetic acid] | 800 nM
CCc1ccc([C@@H]2[C@@H](c3cccc(Cl)c3)O[C@@H](CC(=O)O)C(=O)N2CC2CC2)cc1 [Example 58, 2-((2S,5R,6R)-6-(3-Chlorophenyl)-4-(cyclopropylmethyl)-5-(4-ethylphenyl)-3-oxomorpholin-2-yl)acetic acid] | 900 nM
O=C(O)C[C@@H]1O[C@H](c2cccc(Cl)c2)[C@@H](c2ccc(OC(F)(F)F)cc2)N(CC2CC2)C1=O [Example 59, 2-((2S,5R,6R)-6-(3-Chlorophenyl)-4-(cyclopropylmethyl)-3-oxo-5-(4-(trifluoromethoxy)phenyl)morpholin-2-yl)acetic acid] | 700 nM
Cc1ccc([C@@H]2[C@@H](c3cccc(Cl)c3)O[C@@H](CC(=O)O)C(=O)N2CC2CC2)cc1 [Example 60, 2-((2S,5R,6R)-6-(3-Chlorophenyl)-4-(cyclopropylmethyl)-3-oxo-5-(p-tolyl)morpholin-2-yl)acetic acid] | 700 nM
O=C(O)C[C@H]1O[C@H](c2cccc(Cl)c2)[C@@H](c2ccccc2)N(CC2CC2)C1=O [Example 63, 2-((2R,5R,6R)-6-(3-Chlorophenyl)-4-(cyclopropylmethyl)-3-oxo-5-phenylmorpholin-2-yl)acetic acid] | 9100 nM
O=C(O)C[C@H]1O[C@H](c2cccc(Cl)c2)[C@@H](c2ccc(F)cc2)N(CC2CC2)C1=O [Example 64, 2-((2R,5R,6R)-6-(3-Chlorophenyl)-4-(cyclopropylmethyl)-5-(4-fluorophenyl)-3-oxomorpholin-2-yl)acetic acid] | 1500 nM
O=C(O)C[C@H]1O[C@H](c2cccc(Cl)c2)[C@@H](c2ccc(OC(F)(F)F)cc2)N(CC2CC2)C1=O [Example 65, 2-((2R,5R,6R)-6-(3-Chlorophenyl)-4-(cyclopropylmethyl)-3-oxo-5-(4-(trifluoromethoxy)phenyl)morpholin-2-yl)acetic acid] | 1100 nM
CC(C)c1ccc([C@@H]2[C@@H](c3cccc(Cl)c3)O[C@H](CC(=O)O)C(=O)N2CC2CC2)cc1 [Example 66, 2-((2R,5R,6R)-6-(3-Chlorophenyl)-4-(cyclopropylmethyl)-5-(4-isopropylphenyl)-3-oxomorpholin-2-yl)acetic acid] | 13500 nM

Further compounds by falling IC50, results first:

IC50 | Structure (SMILES)
700 nM | CCCCN1C(=O)[C@H](CC(=O)O)O[C@H](c2cccc(Cl)c2)[C@H]1c1ccc(Cl)cc1 [Example 40, 2-((2S,5R,6R)-4-Butyl-6-(3-chlorophenyl)-5-(4-chlorophenyl)-3-oxomorpholin-2-yl)acetic acid]
600 nM | CCCN1C(=O)[C@H](CC(=O)O)O[C@H](c2cccc(Cl)c2)[C@H]1c1ccc(Cl)cc1 [Example 49, 2-((2S,5R,6R)-6-(3-Chlorophenyl)-5-(4-chlorophenyl)-3-oxo-4-propylmorpholin-2-yl)acetic acid]
600 nM | O=C(O)C[C@@H]1O[C@H](c2cccc(Cl)c2)[C@@H](c2ccc(Cl)cc2F)N(CC2CC2)C1=O [Example 54, 2-((2S,5R,6R)-5-(4-Chloro-2-fluorophenyl)-6-(3-chlorophenyl)-4-(cyclopropylmethyl)-3-oxomorpholin-2-yl)acetic acid]
600 nM | Cc1ccc([C@@H]2[C@@H](c3cccc(Cl)c3)O[C@H](CC(=O)O)C(=O)N2CC2CC2)cc1 [Example 61, 2-((2R,5R,6R)-6-(3-Chlorophenyl)-4-(cyclopropylmethyl)-3-oxo-5-(p-tolyl)morpholin-2-yl)acetic acid]
500 nM | O=C(O)C[C@H]1O[C@H](c2cccc(Cl)c2)[C@@H](c2ccc(Cl)cc2)N(CC2CCCC2)C1=O [Example 28, 2-((2R,5R,6R)-6-(3-Chlorophenyl)-5-(4-chlorophenyl)-4-(cyclopentylmethyl)-3-oxomorpholin-2-yl)acetic acid]
500 nM | CCCN1C(=O)[C@@H](CC(=O)O)O[C@H](c2cccc(Cl)c2)[C@H]1c1ccc(Cl)cc1 [Example 48, 2-((2R,5R,6R)-6-(3-Chlorophenyl)-5-(4-chlorophenyl)-3-oxo-4-propylmorpholin-2-yl)acetic acid]
300 nM | O=C(O)C[C@@H]1O[C@H](c2cccc(Cl)c2)[C@@H](c2ccc(Cl)cc2)N(CC2CCCC2)C1=O [Example 29, 2-((2S,5R,6R)-6-(3-Chlorophenyl)-5-(4-chlorophenyl)-4-(cyclopentylmethyl)-3-oxomorpholin-2-yl)acetic acid]
100 nM | CCC(CC)N1C(=O)[C@H](CC(=O)O)O[C@H](c2cccc(Cl)c2)[C@H]1c1ccc(Cl)cc1 [Example 53, 2-((2S,5R,6R)-6-(3-Chlorophenyl)-5-(4-chlorophenyl)-3-oxo-4-(pentan-3-yl)morpholin-2-yl)acetic acid]
